# From publication PMC6262408, “Recovery of the Peptidoglycan Turnover Product Released by the Autolysin Atl in Staphylococcus aureus Involves the Phosphotransferase System Transporter MurP and the Novel 6-phospho-N-acetylmuramidase MupG” (Frontiers in Microbiology, 2018)
# Biological target: T1, MupG (Staphylococcus aureus, UniProt A0A0H2XHV5)
# T1 sequence (A0A0H2XHV5 1-351): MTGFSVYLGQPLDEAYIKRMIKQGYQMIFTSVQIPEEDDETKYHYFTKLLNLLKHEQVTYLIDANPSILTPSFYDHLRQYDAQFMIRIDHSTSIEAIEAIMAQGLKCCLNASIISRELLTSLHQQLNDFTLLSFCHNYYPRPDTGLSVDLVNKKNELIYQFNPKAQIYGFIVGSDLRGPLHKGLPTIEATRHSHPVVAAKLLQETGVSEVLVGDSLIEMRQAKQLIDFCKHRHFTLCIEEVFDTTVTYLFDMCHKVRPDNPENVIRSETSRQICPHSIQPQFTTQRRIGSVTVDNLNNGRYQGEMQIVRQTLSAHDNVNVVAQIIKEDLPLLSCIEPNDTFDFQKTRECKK
# Test: LC-MS of hydrolysis by recombinant enzyme
# Assay type: biochemical
# Conditions: substrate in acetone extract of ΔmupG cytosol; 1 μg enzyme, 2.5 h, 37 °C; products MurNAc 6P and GlcNAc
smiles,measurement,value
CC(=O)N[C@H]1[C@H](O[C@H]2[C@H](O)[C@@H](NC(C)=O)C(O)O[C@@H]2CO)O[C@H](COP(=O)(O)O)[C@@H](O)[C@@H]1O[C@H](C)C(=O)O (stereo partly shown) [MurNAc 6P-GlcNAc],LC-MS of hydrolysis by recombinant enzyme,"recombinantly produced MupG cleaved MurNAc 6P-GlcNAc, releasing MurNAc 6P and GlcNAc"
